# Test results reported in patent US11344542B2, “Treatment of aging-associated disease with modulators of leukotriene A4 hydrolase” (Alkahest, Inc., priority 2018, dated 2022).
# “Also recorded” adds a separate entry of the source.
# Key:
# [1] = test system: nineteen-month-old wild type (C57BL/6) mice; test: Y-maze in aged mice treated with inhibitors; type: in vivo, mouse; details: PO daily for 4 weeks, SC 5 mg/kg, CP 10 mg/kg
# Description: A large Y-maze test assessed short-term memory of the familiarity of a specific context. Mice were brought to the experimental room for at least 30 min of acclimation to the experimental room conditions (dim lighting) prior to testing. For the initial training trial, the mouse was placed at the end of one arm of a large Y-maze designated “start arm” (arm length: 15 inches). The third arm of the maze was blocked off, allowing the mouse to explore two of the three arms freely (“start arm” and “familiar arm”) for 5 min. Each arm contained spatial cues. Three hours later, the mouse was placed back into the maze in the “start arm,” and allowed to explore all three arms with the third arm unblocked (“novel arm”). Movements in and out of each arm were tracked using automated tracking software (CleverSys or San Diego Instruments). Testing was performed under dim lighting, and the apparatus was cleaned with 70% ethanol between trials. The time spent and number of entireties into the “novel arm” and “familiar arm” were analyzed, as well as total distance travelled and velocity as measures of general locomotor activity.
# Recombinant human LTA4H (Bio-techne, 4008-SN) was buffer-exchanged into sterile PBS and dosed at 4.6 ug/150 uL by tail vein i.v. injection. SC-57461A (Cayman Chemical, 423169-68) stock solution was prepared at 10 mg/mL in DMSO. […]
# [2] = test system: hippocampal mRNA levels; test: qPCR of hippocampal mRNA levels in aged mice treated with inhibitors; type: in vivo, mouse; details: PO daily for 4 weeks, vs vehicle
# Description: (§1) Brains were collected following saline perfusion and separated by mid-sagittal slice with one-half drop fixed in freshly prepared 4% PFA. PFA was changed to 30% sucrose 24-48 hours later. A second change to 30% sucrose occurred 24 hours later. The second half was dissected into hippocampus and cortex and then snap frozen on dry ice.
# (§2) Brain tissue was sectioned or lysed and analyzed for markers of neurogenesis and aging by standard histological and biochemical methods, including qRT-PCR, Western blot, ELISA, and immunohistochemistry.
# (§3) Nineteen-month-old (19 mo) wild type (WT; C57BL/6) mice were homogenized into five (5) groups by body weight, total distance travelled in the open field test, and average velocity in the open field test. Group 1 was administered 10% EtOH control PO daily for 4 weeks, Group 2 was administered 5 mg/kg of SC-57461A LTA4H dual inhibitor PO daily for 4 weeks; Group 3 was administered 10 mg/kg of CP-105,696 LTB4 receptor (BLTR) antagonist PO daily for 4 weeks, Group 4 was administered 10 mg/kg of Montelukast cysteinyl receptor (CysLTR) antagonist daily for 4 weeks, and Group 5 was administered 10 mg/kg of pinostilbene hydrate daily for 4 weeks. During Week 4 of treatment all groups were tested using open field, radial arm water maze, and Y-maze. During Week 5 animals were sacrificed, and tissues collected for histological and biochemical analysis.
# [3] = biological target: T1, LTA4H (Homo sapiens, UniProt P09960); details: in vitro; Low et al., Sci Rep 2017; cited from earlier work
# T1 sequence (P09960 1-611): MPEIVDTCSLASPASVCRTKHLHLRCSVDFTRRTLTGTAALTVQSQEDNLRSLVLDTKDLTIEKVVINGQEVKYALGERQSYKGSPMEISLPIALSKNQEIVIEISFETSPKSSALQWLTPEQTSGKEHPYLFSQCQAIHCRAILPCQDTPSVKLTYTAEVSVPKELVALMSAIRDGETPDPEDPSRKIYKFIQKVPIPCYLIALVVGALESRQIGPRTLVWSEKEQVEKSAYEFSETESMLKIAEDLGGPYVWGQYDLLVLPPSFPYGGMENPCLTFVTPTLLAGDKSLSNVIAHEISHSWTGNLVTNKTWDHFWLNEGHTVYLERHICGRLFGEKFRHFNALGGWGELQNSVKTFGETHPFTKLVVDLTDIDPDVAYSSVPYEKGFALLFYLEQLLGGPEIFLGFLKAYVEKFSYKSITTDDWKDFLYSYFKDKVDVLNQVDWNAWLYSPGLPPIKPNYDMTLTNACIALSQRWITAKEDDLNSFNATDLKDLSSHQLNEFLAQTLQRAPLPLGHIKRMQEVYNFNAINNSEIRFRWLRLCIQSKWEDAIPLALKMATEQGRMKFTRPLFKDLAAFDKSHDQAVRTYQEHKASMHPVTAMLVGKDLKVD
# [4] = test system: aquaporin 4 (AQP4) in the hippocampus; test: Aquaporin 4 (AQP4) immunofluorescence in the hippocampus of aged mice; type: in vivo, mouse; details: 10 mg/kg PO daily for 4 weeks
# Description: as §1, §2, §3
# [5] = test system: LTB4; test: Plasma LTB4 by ELISA in aged mice treated with inhibitors; type: in vivo, mouse; details: terminal plasma, PO daily for 4 weeks, vs vehicle
# Description: On the final day of dosing, mice were deeply anesthetized with Avertin (250 mg/kg IP). The mice are subjected to cardiac puncture and blood samples were collected using syringes pre-filled with EDTA or heparin. Blood was either subjected to calcimycin stimulation assay or separated into plasma by centrifugation. Plasma from each mouse was aliquoted and stored at −80° C.
# The concentration of mouse LTB4, the product of LTA4H enzyme hydrolysis activity, was measured using commercially-available LTB4 parameter assay kits (R&D Systems and Enzo). Blood samples were collected by cardiac puncture into pre-filled syringes with EDTA and injected into a microcentrifuge tube. The plasma was separated by centrifugation at 1000 g for 15 minutes at 4 C. Alternatively, blood was subjected to a calcimycin stimulation assay to increase the production of LTB4 prior to plasma collection. All plasma was stored at −80 C until measurement of LTB4 levels. LTB4 levels were measured from the plasma from 4-15 individual young (3 month, 3M) or aged (22.5 month, 22.5M) wild-type mice (WT; C57BL/6).
# Nineteen-month-old (19 mo) wild type (WT; C57BL/6) mice were homogenized into five (5) groups by body weight, total distance travelled in the open field test, and average velocity in the open field test. […]
# [6] = test system: nineteen-month-old wild type (C57BL/6) mice; test: Radial arm water maze in aged mice treated with inhibitors; type: in vivo, mouse
# Description: The water maze (see, e.g. Alamed J, et al., Two-day radial-arm water maze learning and memory tasks; robust resolution of amyloid-related memory deficits in transgenic mice., Nat. Protoc., 1(4):1671-79 (2006)), was filled with water at least 24 hours prior to the test to equilibrate to 25° C. The water was dyed with white latex paint to make the animals visible for tracking and to allow for the use of a hidden platform. Eight distinct visual cues were placed at the end of each of eight arms of the RAWM inserts. On day 1 animals were subjected to 5 trials each with a visible platform and a 30-minute inter-trial interval. Animals had 60 seconds to reach the platform. […] The goal arm remained constant and a different start arm was randomly assigned for each of the 5 trials so that mouse started in every arm once except for the two arms directly across from the platform. The goal arm was switched after every two mice and balanced between all treatment groups. After each trial the mice were placed in an empty cage with blue pads and allowed to dry off under a heat lamp before being placed back into their home cage. Testing day was 48 hours after training, when animals were subjected to the same test of 5 trials each and a 30-minute inter-trial interval, but with a hidden platform Animals were scored for the number of errors (entry into a non-goal arm) and for latency to reach the platform. All trials were recorded using TopScan software (CleverSys, Inc., Reston, Va.).
# Recombinant human LTA4H (Bio-techne, 4008-SN) was buffer-exchanged into sterile PBS and dosed at 4.6 ug/150 uL by tail vein i.v. injection. SC-57461A (Cayman Chemical, 423169-68) stock solution was prepared at 10 mg/mL in DMSO. Stock solution was diluted into sterile PBS immediately prior to p.o. dosing to a final concentration of 10% DMSO and 1 mg/mL SC-57461A. Mice were p.o. dosed at 5 mg/kg. CP-105,696 (Sigma, PZ0363), Pinostilbene hydrate (Sigma, SML0098), and Montelukast (Cayman Chemical, 10008318) stock solutions were prepared at 30 mg/mL in EtOH/Solutol. […]
# [7] = hidden platform testing phase, compared to vehicle mice
Compound,preference for the novel versus familiar arm in Y-maze (percentage of entries) [1],TNFα hippocampal mRNA expression (qPCR) [2],inhibition of hydrolase versus peptidase activity of LTA4H [3],fluorescence intensity of AQP4 in the hippocampus immediately surrounding blood vessels (vascular) [4],"integrated optical density of aquaporin 4 (AQP4) in the hippocampus ([4]; vs vehicle, hydrate, 10 mg/kg)",plasma concentration of LTB4 measured by ELISA [5],IL-1β hippocampal mRNA expression (qPCR) [2],IL-6 hippocampal mRNA expression (qPCR) [2],aqp4 hippocampal mRNA expression (qPCR) [2],h2d1 hippocampal mRNA expression (qPCR) [2],timp1 hippocampal mRNA expression (qPCR) [2],"hippocampus-dependent spatial memory in radial arm water maze ([6]; aged mice, PO daily for 4 weeks, SC 5 mg/kg, Montelukast 10 mg/kg)","latency to find the platform in radial arm water maze [6, 7]","number of errors in radial arm water maze [6, 7]"
"O=C(O)C1(c2ccc3c(c2)OC[C@H](Cc2ccc(-c4ccccc4)cc2)[C@H]3O)CCCC1 [CP-105,696]",statistically significant preference for the novel arm,–,–,–,–,–,–,–,–,–,–,–,–,–
COc1cc(O)cc(/C=C/c2ccc(O)cc2)c1 [pinostilbene hydrate],–,significant decrease,only inhibit the hydrolase activity and not the peptidase activity,trend towards a decrease,trend towards a decrease; also recorded: significant reduction,did not detect a reduction,–,–,–,–,–,–,–,–
CN(CCCOc1ccc(Cc2ccccc2)cc1)CCC(=O)O.Cl [SC-57461A],trend towards preference for the novel arm,significant decrease,–,–,–,reduces,significant decrease,significant decrease,significant decrease,significant decrease,trend towards a decrease,improvement,significantly shorter latency,fewer errors
